{"source": "paper PMC6009935", "about": "(Journal of Enzyme Inhibition and Medicinal Chemistry, 2017)", "test_system": "G-protein", "test": "Functional [35S]GTPγS binding assay on rat brain membrane homogenates", "assay_type": "biochemical", "method": "The experiments were performed by [35S]GTPγS binding assays to control the GDP to GTP exchange of the α-subunit of Gi-protein. […] We examined the opioid receptor binding affinity of 5 in competition binding experiments, using opioid receptor selective radioligands. […]\nFunctional [35S]GTPγS binding experiments\nThe functional [35S]GTPγS binding experiments were performed as previously described,5,6 with modifications. Briefly the rat brain membrane homogenates containing ~10 µg/mL protein were incubated at 30 °C for 60 min in Tris-EGTA buffer (pH 7.4) composed of 50 mM Tris-HCl, 1 mM EGTA, 3 mM MgCl2, 100 mM NaCl, containing 20 MBq/0.05 cm3 [35S]GTPγS (0.05 nM) and […]\ncompound 9 together with excess GDP (30 µM) in a final volume of 1 mL. Total binding was measured in the absence of test compounds, non-specific binding was determined in the presence of 10 µM unlabelled GTPγS. The bound and unbound [35S]GTPγS was separated as described in the […]\ncompetition binding assays section through Whatmann GF/B glass fibers. The radioactivity of the filters was also detected as described above. [35S]GTPγS binding experiments were performed in triplicates and repeated at least three times.\nThe specific binding of all radiolabeled compounds was calculated by the subtraction of non-specific binding from total binding and was given in percentage. The data was normalized to total specific binding, which was settled 100%, which in case of [35S]GTPγS also represents the basal activity of the G-protein. Experimental data were presented as means ± S.E.M in the function of the applied ligand concentration range in logarithm form. Points were fitted with the professional curve fitting program, GraphPad Prism 5.0 (GraphPad Prism Software Inc., San Diego, CA), using non-linear regression. In the radioligand competition binding assays the ‘One-site competition’, while in [35S]GTPγS binding assays the ‘Sigmoid dose-response’ equation was applied to determine IC50 (unlabeled ligand affinity) and the maximum G-protein efficacy (Emax) and ligand potency (EC50), respectively. For IC50 and EC50 values standard error is only given in their logarithm form by the curve fitting program due to the data representation. In competition binding experiments the Ki value was calculated according to Cheng-Prusoff equation.7 […]\nbinding assays. In figure B, 5 is indicated again for better comparison. Figures represents the specific binding of [35S]GTPγS in percentage in the presence of increasing concentrations (10-10-10-5 M) of the indicated ligands in rat brain membrane homogenates. “Basal” on the x-axis indicates the basal activity of the monitored G-protein, which is measured in the absence of the compounds and also represents the total specific binding of [35S]GTPγS. The level of basal activity was defined as 100% and is presented with a dotted line. Points represent means ± S.E.M. for at least three experiments performed in triplicate.", "key": {"[1]": {"conditions": "rat brain membrane homogenates, basal activity = 100%"}, "[2]": {"conditions": "rat brain membrane homogenates, logarithm of EC50, negative sign printed"}}, "note": "Where two headings read alike, the source gives them in different places.", "data": [{"smiles": "Cc1c(C(=O)NC2CCN(C(=O)[C@H](Cc3ccccc3)NC(=O)CNC(=O)[C@@H](C)NC(=O)[C@@H](N)Cc3ccc(O)cc3)CC2)nn(-c2ccc(Cl)cc2Cl)c1-n1cccc1", "note": "[Compound 9]", "values": [{"measurement": "agonist, antagonist or inverse agonist nature", "value": "inverse agonist"}, {"measurement": "EC50", "setting": "rat brain membrane homogenates", "value": 3600, "unit": "nM"}, {"measurement": "Emax ± S.E.M. (maximal G-protein efficacy)", "setting": "[1]", "value": "36.62 ± 10.35", "unit": "%"}, {"measurement": "LogEC50 ± S.E.M. (ligand potency)", "setting": "[2]", "value": "−5.44 ± 0.21"}]}, {"smiles": "Cc1c(C(=O)NC2CCNCC2)nn(-c2ccc(Cl)cc2Cl)c1-n1cccc1", "note": "[Compound 5]", "values": [{"measurement": "Emax ± S.E.M. (maximal G-protein efficacy)", "setting": "[1]", "value": "99.2 ± 46.1", "unit": "%"}, {"measurement": "LogEC50 ± S.E.M. (ligand potency)", "setting": "[2]", "value": "ambiguous ^*"}]}, {"smiles": "C[C@@H](NC(=O)[C@@H](N)Cc1ccc(O)cc1)C(=O)NCC(=O)N[C@@H](Cc1ccccc1)C(N)=O", "note": "[Compound 10, Tyr-D-Ala-Gly-Phe-NH2, reference compound]", "values": [{"measurement": "EC50", "value": 81.3, "unit": "nM"}, {"measurement": "Emax ± S.E.M. (maximal G-protein efficacy)", "value": "161.5 ± 4.08", "unit": "%"}, {"measurement": "LogEC50 ± S.E.M. (ligand potency)", "value": "−7.09 ± 0.22 (81.3 nM)"}, {"measurement": "agonist, antagonist or inverse agonist nature", "value": "agonist"}, {"measurement": "maximum efficacy (Emax) above basal activity", "value": "~70", "unit": "%"}]}]}
